Bridges are numbered along the chain shown (N, C = ends). Where no end group is shown, it is not given here.
Tested on: HCCs of TGFα/c-myc mice
Assay: Tumour penetration assessment with Evans blue
Type: in vivo, mouse
Conditions: 4 μmol/kg peptide i.v.; Evans blue 33 mg/kg i.v. 24 h later; photometric quantification; n = 11 tumours from four animals
Experimental: Homozygous metallothionein/TGFα and albumin/c-myc single transgenic mice in CD13B6CBA background were crossed to generate the male TGFα/c-myc bitransgenic mice, as previously described. Hepatocarcinogenesis was accelerated by giving the mice ZnCl2 (via the drinking water) to induce the expression of TGFα. The animals were inspected every 2 to 3 days. To detect and monitor the endogenously formed HCCs in the TGFα/c-myc mice, gadoxetic acid (Gd-EOB-DTPA)-enhanced MRI was performed on a 3T MRI scanner (Siemens Magnetom Trio, Siemens Medical Solutions) as described recently. Mice with HCC as identified by Gd-EOB-DTPA-enhanced MRI were used in the subsequent experiments.
TGFα/c-myc mice with confirmed liver tumours according to Gd-EOB-DTPA […]-enhanced MRI or nude mice with HepG2 tumours received iRGD/CEND-1 or RGD control peptide (4 μmol/kg each), or PBS by tail vein injection. […] Another 30 min later, the mice were terminally perfused with Ringer solution by cannulation of the left heart ventricle. Organs were inspected macroscopically following laparotomy, and the liver, tumour and other organs were excised. Evans blue was extracted from tissues in N,N-dimethylformamide for 24 h at 37 °C and quantified spectrophotometrically (Beckman Coulter DU 800, Beckman Coulter, Brea, CA, USA) at 600 nm.

CRGDDGPKC (disulfide 1-9 (inferred)) [RGD control peptide, RGD control peptide (…)]
increase in Evans blue in the tumour tissue: no effect

— article PMC10053770, “Assessment of the Pharmacokinetics, Disposition, and Duration of Action of the Tumour-Targeting Peptide CEND-1” (International Journal of Molecular Sciences, 2023)
